≈ marks a conversion by molar mass, not a printed value.
How the values were obtained:
[1] = system: S. aureus (ATCC 29213); assay: MIC80 on S. aureus; assay type: cell-based, Staphylococcus aureus; settings: Staphylococcus aureus, ATCC 29213 / MSSA, read-out: MIC80 S. aureus, S. aureus ATCC 29213 (MSSA); ≥80% growth inhibition
[2] = Cytotoxicity assay (CC50), MTS; assay type: cell-based, human; settings: human, HepG2-derived hepatoblastoma cell line (HEPDES19), HEPDES19 cells
Description: (§1) To further characterize the compounds, the minimal inhibitory concentration (MIC80) were determined for selected compounds. MIC80 is defined as the compound concentration at which ≥80% bacterial growth is inhibited compare to untreated controls. Meanwhile, for the selected compounds, cytotoxicity assays (CC50) were performed on a HepG2-derived hepatoblastoma cell line (HEPDES19). […] For CC50 evaluation, soluble tetrazolium dye (MTS) was used to measure mitochondrial toxicity in a human hepatoblastoma cell line (18). The bacteria (E. coli, S. saprophyticus and A. baumannii) used in MIC80 measurements were the same as that in the primary screening, but for Staphylococcus, S. aureus is used primarily because it is a common pathogen in Staphylococcaeae family, while S. saprophyticus is part of the normal human flora.

[3] = system: HepG2-derived hepatoblastoma cell line (HEPDES19); assay: Cytotoxicity assay (CC50), MTS; assay type: cell-based, human; settings: HEPDES19 cells
Description: as §1

[4] = system: E. coli (ATCC 35218); assay: microbe, parasite or virus in culture; assay type: cell-based; settings: for MIC80: Escherichia coli, ATCC35218, read-out: MIC80 E. coli, E. coli ATCC 35218
[5] = system: MDR Enterobacteriaceae; assay: organism not typed; assay type: cell-based; settings: read-out: MIC80 on MDR Enterobacteriaceae
Description: as §1
(§2) All these MDR-bacteria are at least resistant to two classes of the antibiotics among five groups and/or specific antibiotics including quinolones/fluorquinolones, carbapenems, cephalosporins, aminoglycosides and piperacillin-tazobactam.

[6] = system: MDR E. coli; assay: microbe, parasite or virus in culture; assay type: cell-based; settings: Escherichia coli
Description: as §1, §2

[7] = system: Klebsiella pneumoniae; assay: microbe, parasite or virus in culture; assay type: cell-based; settings: Klebsiella pneumoniae
Description: as §1, §2

[8] = system: Citrobacter koseri; assay: microbe, parasite or virus in culture; assay type: cell-based; settings: Citrobacter koseri
Description: as §1, §2

[9] = system: Morganella morganii; assay: microbe, parasite or virus in culture; assay type: cell-based; settings: Morganella morganii
Description: as §1, §2

[10] = system: Enterobacter cloacae complex; assay: microbe, parasite or virus in culture; assay type: cell-based; settings: Enterobacter cloacae
Description: as §1, §2

[11] = system: S. aureus and/or S. saprophyticus; assay: MIC80 on S. aureus and/or S. saprophyticus; assay type: cell-based; settings: read-out: MIC80 against S. aureus and/or S. saprophyticus
Description: as §1, with “(HEPDES19). […] For the MIC80 measurements, a 1.5 fold dilution series of the compounds was prepared in Mueller-Hinton II broth.” for “(HEPDES19).”, “flora. S. aureus (ATCC 29213) is methicillin-sensitive Staphylococcus aureus (MSSA) strain and it was used as a model strain to measure the MIC80.” for “flora.”

[12] = system: Staphylococcus epidermidis; assay: MIC80 on S. epidermidis; assay type: cell-based
Description: as §1, with “(HEPDES19). […] For the MIC80 measurements, a 1.5 fold dilution series of the compounds was prepared in Mueller-Hinton II broth.” for “(HEPDES19).”, “flora. S. aureus (ATCC 29213) is methicillin-sensitive Staphylococcus aureus (MSSA) strain and it was used as a model strain to measure the MIC80.” for “flora.”
(§3) It was also tested whether compounds #63 and #285 can inhibit other coagulase-negative Staphylococcus (CNS) including S. epidermidis, S. hominis, etc. […] .

[13] = system: Coagulase negative Staphylococcus; assay: MIC80 on coagulase negative Staphylococcus; assay type: cell-based
Description: as §1, with “(HEPDES19). […] For the MIC80 measurements, a 1.5 fold dilution series of the compounds was prepared in Mueller-Hinton II broth.” for “(HEPDES19).”, “flora. S. aureus (ATCC 29213) is methicillin-sensitive Staphylococcus aureus (MSSA) strain and it was used as a model strain to measure the MIC80.” for “flora.”
as §3

[14] = system: S. aureus ATCC strains and methicillin-resistant Staphylococcus aureus (MRSA); assay: MIC80 on S. aureus ATCC strains and MRSA; assay type: cell-based
Description: as §1

[15] = system: Acinetobacter baumannii (Abl, from a patient); assay: microbe, parasite or virus in culture; assay type: cell-based; settings: Acinetobacter baumannii, read-out: MIC80 A. baumannii, A. baumannii Ab1, MDR patient isolate
[16] = system: Staphylococcus hominis; assay: MIC80 on S. hominis; assay type: cell-based
Description: as §1, with “(HEPDES19). […] For the MIC80 measurements, a 1.5 fold dilution series of the compounds was prepared in Mueller-Hinton II broth.” for “(HEPDES19).”, “flora. S. aureus (ATCC 29213) is methicillin-sensitive Staphylococcus aureus (MSSA) strain and it was used as a model strain to measure the MIC80.” for “flora.”
as §3

O=C(Sc1cccccc1=O)c1ccccc1 [Compound 364]
MIC80 [1]: 13.2 µM (≈ 3.2 µg/mL)
CC50 [2]: > 50 µM
CC50 [3]: 67 µM
MIC80 E. coli ([4]; E. coli ATCC 35218): 19.8 µM (≈ 4.8 µg/mL)
MIC80 [4]: < 30 µM
MIC80 [5]: ≤ 20 µM
MIC80 ([6]; Ec1 (MDR E. coli)): 33.3 µM (≈ 8.07 µg/mL)
MIC80 ([6]; Ec2 (MDR E. coli)): 14.8 µM (≈ 3.59 µg/mL)
MIC80 ([6]; Ec3 (MDR E. coli)): 22.2 µM (≈ 5.38 µg/mL)
MIC80 ([6]; Ec4 (MDR E. coli)): 33.3 µM (≈ 8.07 µg/mL)
MIC80 ([7]; Kp1 (Klebsiella pneumonia)): > 33.3 µM
MIC80 ([7]; Kp6 (Klebsiella pneumonia)): > 33.3 µM
MIC80 [8]: 33.3 µM (≈ 8.07 µg/mL)
MIC80 [9]: > 33.3 µM
MIC80 [10]: 33.3 µM (≈ 8.07 µg/mL)
MIC80 [11]: < 20 µM

COc1ccccc1C(=O)Oc1cccccc1=O [Compound 285]
MIC80 [1]: 10.3 µM (≈ 2.64 µg/mL)
MIC80 ([12]; Se1 (Staphylococcus epidermidis)): 8.8 µM (≈ 2.26 µg/mL)
MIC80 ([12]; Se2 (Staphylococcus epidermidis)): 6.6 µM (≈ 1.69 µg/mL)
MIC80 ([12]; Se3 (Staphylococcus epidermidis)): 6.6 µM (≈ 1.69 µg/mL)
MIC80 ([12]; Se4 (Staphylococcus epidermidis)): 9.9 µM (≈ 2.54 µg/mL)
MIC80 ([12]; Se5 (Staphylococcus epidermidis)): 9.9 µM (≈ 2.54 µg/mL)
CC50 [2]: > 50 µM
CC50 [3]: ≥ 100 µM
MIC80 ([13]; CNS1 (Coagulase negative Staphylococcus)): 9.9 µM (≈ 2.54 µg/mL)
MIC80 ([13]; CNS2 (Coagulase negative Staphylococcus)): 6.6 µM (≈ 1.69 µg/mL)
MIC80 ([14]; ATCC 25923 / MRSA, S. aureus ATCC 25923): 8.8 µM (≈ 2.26 µg/mL)
MIC80 ([14]; ATCC 29213 / MRSA, S. aureus ATCC 29213 (Table 3)): 8.8 µM (≈ 2.26 µg/mL)
MIC80 ([14]; BAA-976 / MRSA, S. aureus ATCC BAA 976): 8.8 µM (≈ 2.26 µg/mL)
MIC80 ([14]; BAA-977 / MRSA, S. aureus ATCC BAA 977): 8.8 µM (≈ 2.26 µg/mL)
MIC80 ([14]; MRSA, Sa1 (MRSA)): 8.8 µM (≈ 2.26 µg/mL)
MIC80 ([14]; MRSA, Sa2 (MRSA)): 8.8 µM (≈ 2.26 µg/mL)
MIC80 ([14]; MRSA, Sa3 (MRSA)): 8.8 µM (≈ 2.26 µg/mL)
MIC80 ([14]; MRSA, Sa5 (MRSA)): 8.8 µM (≈ 2.26 µg/mL)
MIC80 ([14]; MRSA, Sa6 (MRSA)): 8.8 µM (≈ 2.26 µg/mL)
MIC80 ([14]; MRSA, Sa7 (MRSA)): 8.8 µM (≈ 2.26 µg/mL)
MIC80 ([14]; MRSA, Sa8 (MRSA)): 8.8 µM (≈ 2.26 µg/mL)
MIC80 ([14]; MRSA, Sa9 (MRSA)): 8.8 µM (≈ 2.26 µg/mL)
MIC80 ([14]; MRSA, Sa10 (MRSA)): 8.8 µM (≈ 2.26 µg/mL)
MIC80 ([14]; MRSA, Sa11 (MRSA)): 8.8 µM (≈ 2.26 µg/mL)
MIC80 ([14]; MRSA, Sa12 (MRSA)): 8.8 µM (≈ 2.26 µg/mL)
MIC80 ([14]; MRSA, Sa14 (MRSA)): 8.8 µM (≈ 2.26 µg/mL)
MIC80 ([14]; MRSA, Sa15 (MRSA)): 5.9 µM (≈ 1.51 µg/mL)
MIC80 ([14]; MRSA, Sa16 (MRSA)): 8.8 µM (≈ 2.26 µg/mL)
MIC80 ([14]; MRSA, Sa17 (MRSA)): 8.8 µM (≈ 2.26 µg/mL)
MIC80 ([14]; MRSA, Sa18 (MRSA)): 8.8 µM (≈ 2.26 µg/mL)
MIC80 ([14]; MRSA, Sa19 (MRSA)): 8.8 µM (≈ 2.26 µg/mL)
MIC80 ([14]; MRSA, Sa20 (MRSA)): 13.2 µM (≈ 3.38 µg/mL)
MIC80 ([14]; MRSA, Sa21 (MRSA)): 5.9 µM (≈ 1.51 µg/mL)
MIC80 ([14]; MRSA, Sa22 (MRSA)): 5.9 µM (≈ 1.51 µg/mL)
MIC80 ([14]; MRSA, Sa23 (MRSA)): 8.8 µM (≈ 2.26 µg/mL)
MIC80 [4]: 100 µM (≈ 25.6 µg/mL)
MIC80 [15]: 44.4 µM (≈ 11.4 µg/mL)
MIC80 ([16]; Sh1 (Staphylococcus hominis)): 9.9 µM (≈ 2.54 µg/mL)
MIC80 ([16]; Sh2 (Staphylococcus hominis)): 9.9 µM (≈ 2.54 µg/mL)
MIC80 ([16]; Sh3 (Staphylococcus hominis)): 6.6 µM (≈ 1.69 µg/mL)
MIC80 [11]: < 20 µM
